Reference: ChEMBL document CHEMBL4346735, “Discovery and pharmacological evaluation of indole derivatives as potent and selective RORγt inverse agonist for multiple autoimmune conditions” (Bioorg Med Chem Lett, 2019)
In brackets after ≈: the same amount, converted by molar mass.

Legend:
[1] = target: T1, Nuclear receptor ROR-gamma (Homo sapiens, UniProt P51449); experiment: Transactivation of recombinant GAL4-DBD fused RORgammat LBD (unknown origin) expressed in HEK293T cells incubated for 18 to 24 hrs by dual-Glo luciferase assay; type: cell-based
T1 sequence (P51449 whole entry): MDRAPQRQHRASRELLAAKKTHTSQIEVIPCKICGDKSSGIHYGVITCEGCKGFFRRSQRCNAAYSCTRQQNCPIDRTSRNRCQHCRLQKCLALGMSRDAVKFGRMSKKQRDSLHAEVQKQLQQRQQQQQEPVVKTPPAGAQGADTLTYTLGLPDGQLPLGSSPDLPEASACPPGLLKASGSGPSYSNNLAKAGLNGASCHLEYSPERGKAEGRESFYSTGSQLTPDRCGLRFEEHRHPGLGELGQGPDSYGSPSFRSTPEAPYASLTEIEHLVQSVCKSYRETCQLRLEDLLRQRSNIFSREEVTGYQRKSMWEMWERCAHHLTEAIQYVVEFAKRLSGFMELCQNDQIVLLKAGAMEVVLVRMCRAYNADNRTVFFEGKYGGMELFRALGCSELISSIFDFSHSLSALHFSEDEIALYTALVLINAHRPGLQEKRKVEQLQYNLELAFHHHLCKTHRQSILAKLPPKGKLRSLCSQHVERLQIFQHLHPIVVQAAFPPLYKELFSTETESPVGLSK

[2] = target: T1, Nuclear receptor ROR-gamma; experiment: Inverse agonist activity at GST-tagged RORgammat LBD (unknown origin) using fluorescein-D22 co-activator peptide as substrate incubated for 1 hr by TR-FRET assay
[3] = Metabolic stability in mouse liver microsomes assessed as parent compound remaining at 1 uM preincubated for 5 mins followed by NADPH addition after 30 mins by LC-MS/MS analysis; type: ADME, Microsome; conditions: read-out: Stability
[4] = Solubility of the compound at pH 2.1; conditions: buffer
[5] = Solubility of the compound at pH 4; conditions: buffer
[6] = target: Cytochrome P450 2D6 (Homo sapiens, UniProt P10635); experiment: Inhibition of CYP2D6 in human liver microsomes using dextromethorphan as substrate preincubated for 5 mins followed by NADPH addition measured after 10 mins by LC-MS/MS analysis
[7] = target: T2, Cytochrome P450 3A4 (Homo sapiens, UniProt P08684); experiment: Inhibition of CYP3A4 in human liver microsomes using testosterone as substrate preincubated for 5 mins followed by NADPH addition measured after 10 mins by LC-MS/MS analysis
[8] = target: T3, Cytochrome P450 1A2 (Homo sapiens, UniProt P05177); experiment: Inhibition of CYP1A2 in human liver microsomes using phenacetin as substrate preincubated for 5 mins followed by NADPH addition measured after 10 mins by LC-MS/MS analysis
T3 sequence (P05177 whole entry): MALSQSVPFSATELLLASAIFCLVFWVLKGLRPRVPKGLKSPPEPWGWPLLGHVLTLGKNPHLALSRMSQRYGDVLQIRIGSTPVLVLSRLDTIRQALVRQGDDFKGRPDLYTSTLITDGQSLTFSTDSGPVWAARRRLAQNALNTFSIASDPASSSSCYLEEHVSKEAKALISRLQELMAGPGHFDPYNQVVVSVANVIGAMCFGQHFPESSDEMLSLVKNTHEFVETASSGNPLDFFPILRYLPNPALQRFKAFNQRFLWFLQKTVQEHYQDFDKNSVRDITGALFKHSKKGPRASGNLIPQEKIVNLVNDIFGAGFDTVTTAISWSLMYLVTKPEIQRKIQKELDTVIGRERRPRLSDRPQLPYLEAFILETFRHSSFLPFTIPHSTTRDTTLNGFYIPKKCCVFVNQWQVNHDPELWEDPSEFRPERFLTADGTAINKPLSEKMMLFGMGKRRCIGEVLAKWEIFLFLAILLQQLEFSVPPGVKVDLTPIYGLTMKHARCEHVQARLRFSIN

[9] = Metabolic stability in human liver microsomes assessed as parent compound remaining at 1 uM preincubated for 5 mins followed by NADPH addition after 30 mins by LC-MS/MS analysis; type: ADME, Microsome; conditions: read-out: Stability
[10] = target: Cytochrome P450 2C9 (Homo sapiens, UniProt P11712); experiment: Inhibition of CYP2C9 in human liver microsomes using diclofenac as substrate preincubated for 5 mins followed by NADPH addition measured after 10 mins by LC-MS/MS analysis
[11] = Metabolic stability in rat liver microsomes assessed as parent compound remaining at 1 uM preincubated for 5 mins followed by NADPH addition after 30 mins by LC-MS/MS analysis; type: ADME, Microsome; conditions: read-out: Stability
[12] = target: Cytochrome P450 2C19 (Homo sapiens, UniProt P33261); experiment: Inhibition of CYP2C19 in human liver microsomes using (S)-mephenytoin as substrate preincubated for 5 mins followed by NADPH addition measured after 40 mins by LC-MS/MS analysis
[13] = Solubility of the compound at pH 7.4; conditions: buffer
[14] = target: T2, Cytochrome P450 3A4; experiment: Inhibition of CYP3A4 in human liver microsomes using midazolam as substrate preincubated for 5 mins followed by NADPH addition measured after 10 mins by LC-MS/MS analysis

Cytochrome P450 2D6, sequence (P10635 whole entry): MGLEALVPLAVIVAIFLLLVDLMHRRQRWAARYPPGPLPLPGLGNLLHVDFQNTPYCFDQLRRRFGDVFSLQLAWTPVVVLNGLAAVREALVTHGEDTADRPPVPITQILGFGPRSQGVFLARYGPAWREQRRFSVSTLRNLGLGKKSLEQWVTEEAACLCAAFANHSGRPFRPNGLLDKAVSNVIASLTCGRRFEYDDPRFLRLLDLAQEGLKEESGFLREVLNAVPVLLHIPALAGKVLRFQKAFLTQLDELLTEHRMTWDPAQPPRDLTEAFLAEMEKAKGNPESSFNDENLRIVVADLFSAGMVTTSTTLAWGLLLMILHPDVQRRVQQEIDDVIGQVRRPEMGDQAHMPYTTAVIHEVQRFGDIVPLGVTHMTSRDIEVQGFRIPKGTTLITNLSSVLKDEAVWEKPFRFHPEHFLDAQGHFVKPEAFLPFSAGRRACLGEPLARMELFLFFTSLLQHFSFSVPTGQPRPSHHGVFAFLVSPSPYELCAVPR
Cytochrome P450 2C9, sequence (P11712 whole entry): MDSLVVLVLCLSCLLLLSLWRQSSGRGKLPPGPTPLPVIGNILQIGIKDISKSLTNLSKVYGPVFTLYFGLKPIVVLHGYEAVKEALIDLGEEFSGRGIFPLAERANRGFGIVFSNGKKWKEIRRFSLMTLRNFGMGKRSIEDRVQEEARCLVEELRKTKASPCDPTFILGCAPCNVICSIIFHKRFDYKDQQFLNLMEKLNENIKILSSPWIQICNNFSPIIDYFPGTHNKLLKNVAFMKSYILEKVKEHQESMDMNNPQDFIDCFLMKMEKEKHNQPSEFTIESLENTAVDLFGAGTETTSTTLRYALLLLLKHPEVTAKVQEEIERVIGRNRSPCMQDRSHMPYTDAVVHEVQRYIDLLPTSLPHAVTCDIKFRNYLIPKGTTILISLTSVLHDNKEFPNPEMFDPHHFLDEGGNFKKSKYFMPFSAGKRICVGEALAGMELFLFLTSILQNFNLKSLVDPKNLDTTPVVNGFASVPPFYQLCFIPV
Cytochrome P450 2C19, sequence (P33261 whole entry): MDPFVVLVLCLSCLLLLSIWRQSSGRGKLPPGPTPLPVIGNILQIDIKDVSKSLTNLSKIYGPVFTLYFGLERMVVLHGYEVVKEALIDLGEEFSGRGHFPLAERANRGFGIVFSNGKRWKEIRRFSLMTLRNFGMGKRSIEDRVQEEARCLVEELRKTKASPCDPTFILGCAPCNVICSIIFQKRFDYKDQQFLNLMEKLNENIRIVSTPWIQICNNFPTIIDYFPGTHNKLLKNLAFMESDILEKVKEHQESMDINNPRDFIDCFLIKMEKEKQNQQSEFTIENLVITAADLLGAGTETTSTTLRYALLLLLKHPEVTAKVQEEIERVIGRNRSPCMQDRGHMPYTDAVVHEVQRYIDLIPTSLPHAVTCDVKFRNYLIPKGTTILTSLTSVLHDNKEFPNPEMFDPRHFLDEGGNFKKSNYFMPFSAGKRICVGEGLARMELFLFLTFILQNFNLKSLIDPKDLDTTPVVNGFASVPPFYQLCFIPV
T2 sequence (P08684 whole entry): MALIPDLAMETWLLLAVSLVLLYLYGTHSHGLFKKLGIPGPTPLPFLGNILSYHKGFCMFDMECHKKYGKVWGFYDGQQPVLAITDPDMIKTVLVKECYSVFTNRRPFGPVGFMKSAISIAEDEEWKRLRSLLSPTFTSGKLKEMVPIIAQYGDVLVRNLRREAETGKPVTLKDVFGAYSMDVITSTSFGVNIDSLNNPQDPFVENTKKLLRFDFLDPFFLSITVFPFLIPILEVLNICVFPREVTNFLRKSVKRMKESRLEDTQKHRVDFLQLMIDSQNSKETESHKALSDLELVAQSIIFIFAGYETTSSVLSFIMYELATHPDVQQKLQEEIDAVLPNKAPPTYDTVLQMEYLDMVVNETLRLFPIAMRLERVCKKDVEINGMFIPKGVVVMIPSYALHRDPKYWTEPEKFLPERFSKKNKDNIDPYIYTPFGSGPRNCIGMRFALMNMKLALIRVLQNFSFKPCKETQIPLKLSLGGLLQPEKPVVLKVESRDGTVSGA

SMILES	IC50 [1] [nM]	remaining at 0.5 h, 1 µM [3] [%]	remaining at 0.5 h, 1 µM [9] [%]	remaining at 0.5 h, 1 µM [11] [%]	other results
Cc1cc(C(=O)O)ccc1-n1cc(C(=O)c2c(Cl)cccc2Cl)c2ccccc21	213	–	–	–	–
COc1cccc2c(C(=O)c3c(Cl)cccc3Cl)cn(-c3ccc(C(=O)O)cc3)c12	731	83	–	–	IC50 [2]: 350 nM
O=C(O)c1ccc(-n2cc(C(=O)c3c(Cl)cccc3Cl)c3cccnc32)c(F)c1	32	92	100	90	solubility [4]: < 1 µM; solubility [5]: < 1 µM; IC50 [6]: > 10000 nM; IC50 [7]: > 50000 nM; IC50 [8]: > 50000 nM; IC50 [10]: 16000 nM; IC50 [12]: > 50000 nM; solubility [13]: > 2000 µM
O=C(O)c1ccc(-n2cc(C(=O)c3c(Cl)cccc3Cl)c3ccccc32)cc1F	290	92	–	–	–
O=C(O)c1ccc(-n2cc(C(=O)c3c(F)cc(F)cc3Cl)c3ccccc32)cc1	210	–	–	–	–
Cc1cccc(Cl)c1C(=O)c1cn(-c2ccc(C(=O)O)cc2F)c2ccccc12	21	84	59	46	–
Cc1cccc(Cl)c1C(=O)c1cn(-c2ccc(C(=O)O)cc2F)c2ncccc12	27	93	88	73	solubility [4]: < 1 µM; solubility [5]: 1 µM (≈ 0.409 µg/mL); IC50 [7]: > 50000 nM; IC50 [8]: > 50000 nM; IC50 [12]: > 50000 nM; solubility [13]: 1960 µM (≈ 803 µg/mL)
O=C(O)c1ccc(-n2cc(C(=O)c3c(Cl)cccc3C(F)(F)F)c3c(F)cccc32)cc1	38	96	79	65	IC50 [6]: > 50000 nM; IC50 [7]: 16400 nM; IC50 [8]: > 50000 nM; IC50 [10]: 22600 nM; IC50 [12]: 50000 nM
O=C(O)c1ccc(-n2cc(C(=O)c3c(Cl)cccc3Cl)c3cccc(Cl)c32)cc1	70	76	–	–	–
Cc1cccc(Cl)c1C(=O)c1cn(-c2ccc(C(=O)O)cc2)c2cccc(F)c12	93	80	77	70	–
O=C(O)c1ccc(-n2cc(C(=O)c3c(Cl)cccc3Cl)c3ccccc32)c(C(F)(F)F)c1	> 3000	85	99	45	–
Cc1c(C(=O)c2c(Cl)cccc2Cl)c2ccccc2n1-c1ccc(C(=O)O)cc1	> 5000	92	–	–	IC50 [2]: 156 nM
O=C(O)c1ccc(-n2cc(C(=O)c3c(Cl)cccc3Cl)c3ccccc32)cc1O	5	77	68	3	–
O=C(O)c1ccc(-n2cc(C(=O)c3c(Cl)cccc3Cl)c3ccccc32)c(F)c1F	75	100	–	–	–
O=C(O)c1cc(Cl)c(-n2cc(C(=O)c3c(Cl)cccc3Cl)c3ccccc32)c(Cl)c1	506	–	–	–	–
O=C(O)c1ccc(-n2cc(C(=O)c3c(F)cccc3F)c3ccccc32)cc1	445	94	92	88	–
O=C(O)c1ccc(-n2cc(C(=O)c3c(Cl)cccc3Cl)c3cc(F)ccc32)cc1	251	82	87	76	–

SMILES	IC50 [1] [nM]	remaining at 0.5 h, 1 µM [3] [%]	remaining at 0.5 h, 1 µM [9] [%]	remaining at 0.5 h, 1 µM [11] [%]	other results
O=C(O)c1ccc(-n2cc(C(=O)c3c(Cl)cccc3Cl)c3c(F)cccc32)c(F)c1	37	100	88	44	IC50 [6]: > 50000 nM; IC50 [7]: 8340 nM; IC50 [8]: > 50000 nM; IC50 [10]: 8010 nM; IC50 [12]: > 50000 nM
O=C(O)c1ccc(-n2cc(C(=O)c3c(Cl)cccc3Cl)c3cccnc32)cc1	104	100	100	100	solubility [4]: 1 µM (≈ 0.411 µg/mL); solubility [5]: 3 µM (≈ 1.23 µg/mL); IC50 [2]: 20 nM; solubility [13]: 407 µM (≈ 167 µg/mL)
O=C(O)c1ccc(-n2cc(C(=O)c3c(F)cccc3Cl)c3ccccc32)cc1	199	100	100	100	IC50 [6]: > 100000 nM; IC50 [14]: > 100000 nM; IC50 [2]: 20 nM; IC50 [8]: 96600 nM; IC50 [10]: 9000 nM; IC50 [12]: > 100000 nM
Cc1cccc(Cl)c1C(=O)c1cn(-c2ccc(C(=O)O)cc2)c2c(F)cccc12	11	80	66	70	IC50 [6]: > 50000 nM; IC50 [7]: 27200 nM; IC50 [10]: 32000 nM; IC50 [12]: > 50000 nM
O=C(O)c1ccc(-n2cc(C(=O)c3ccccc3Cl)c3ccccc32)cc1	205	96	–	–	–
O=C(O)c1cc(F)c(-n2cc(C(=O)c3c(Cl)cccc3Cl)c3ccccc32)c(F)c1	10	75	94	30	–
O=C(O)c1ccc(-n2cc(C(=O)c3c(Cl)cc(Cl)cc3Cl)c3ccccc32)cc1	107	90	–	–	–
O=C(O)c1ccc(-n2cc(C(=O)c3c(Cl)cccc3Cl)c3ccccc32)cc1C(F)(F)F	> 1000	61	71	61	–
Cc1cccc2c(C(=O)c3ccccc3Cl)cn(-c3ccc(C(=O)O)cc3F)c12	119	67	–	–	IC50 [2]: 8.1 nM
O=C([O-])c1ccc(-n2cc(C(=O)c3c(Cl)cccc3Cl)c3ccccc32)cc1.[Na+]	–	–	–	–	solubility [4]: 52 µM; solubility [5]: 30 µM; solubility [13]: > 2000 µM
Cc1cc(-n2cc(C(=O)c3c(Cl)cccc3Cl)c3ccccc32)ccc1C(=O)O	2010	–	–	–	–
Cc1cccc(Cl)c1C(=O)c1cn(-c2ccc(C(=O)O)cc2F)c2cccc(F)c12	36	68	75	43	–
O=C(O)c1ccc(-n2cc(C(=O)c3c(Cl)cccc3C(F)(F)F)c3cccnc32)cc1	44	84	83	55	–
O=C(O)c1ccc(-n2cc(C(=O)c3c(Cl)cccc3Cl)c3ccc(F)cc32)cc1	199	80	91	61	–
O=C(O)c1ccc(-n2cc(C(=O)c3c(Cl)cccc3Cl)c3cccc(F)c32)c(F)c1	–	72	65	73	–
O=C(O)c1ccc(-n2cc(C(=O)c3c(Cl)cccc3Cl)c3ccccc32)c(Cl)c1	124	64	76	48	–
O=C(O)c1ccc(-n2cc(C(=O)c3c(Cl)cccc3C(F)(F)F)c3ccccc32)cc1	–	100	100	95	solubility [4]: 10 µM (≈ 4.44 µg/mL); solubility [5]: 1 µM (≈ 0.444 µg/mL); IC50 [6]: > 50000 nM; IC50 [14]: 37000 nM; IC50 [7]: > 50000 nM; IC50 [8]: > 25000 nM; IC50 [10]: 16000 nM; IC50 [12]: > 50000 nM; solubility [13]: 1470 µM (≈ 654 µg/mL)
